# Data published in patent EP1216701A1, “Process to increase the concentration of meiosis-activating sterols (MAS) in the cholesterol synthesis and the use of potent inhibitors in the process” (Schering Aktiengesellschaft, priority 2000, dated 2002).
# Assays:
# [1] = system: HepG2 cells; experiment: Accumulation of cholesterol precursors / C29-sterols (MAS) in HepG2 cells, GC/MS (SIM); type: cell-based, Human; settings: HepG2 cells; for changes in the cholesterol precursor pattern: at 10 µM, compared to potent inhibitors, data not shown; for Dienol (m/z 486) / Enol T-MAS (m/z 484) / Trienol FF-MAS (m/z 482): ± SD
# Method: (§1) Human hepatoma HepG2 cells were cultured to confluency in 60-mm dishes in phenol-red-free Dulbecco's modified Eagle's medium (DMEM) containing Pen-Strep (100 µg/ml), glucose (10 mM), sodium bicarbonate (45 mM) and glutamine (4 mM) supplemented with 10% fetal calf serum as described previously (24). At the beginning of the experiment the medium was changed to serum-free DMEM supplemented with 10% lipid-free "controlled process serum replacement" (CPSR-1). Compounds were added from ethanolic stock solutions to produce final ethanol concentrations of 0.1-0.3% v/v. Controls received the same amount of ethanol. Aminotriazole was added in an aqueous solution. Slices of rat testis (25 µm; 25-50 mg wet weight) were incubated under the same conditions in a shaking water bath (37°C). For isotopomer spectral analysis (ISA) of lathosterol, 1-^13C-acetate was added in an aqueous solution to a final concentration of 1 mM.
# (§2) Cells were washed three times with ice cold PBS (pH 7.4) (once with 2 mg/ml BSA and twice with PBS alone). Epicoprostanol (1 µg in 50 µl of hexane) was added as internal standard to each sample. Sterols were extracted in hexane/isopropanol (3:2 v/v; two times with 4 ml). After drying under nitrogen and alkaline hydrolysis (1 N NaOH in 80% ethanol, 1.5 h at 70°C), the sterols were extracted with cyclohexane (two times with 3 ml). After drying under nitrogen, sterols were converted to their trimethylsilyl (TMS) derivatives by adding 100 µl bis(trimethylsilyl)trifluoracetamide (Pierce)/n-decane (1:1; v/v) and heating for 1 h at 70°C in a conical glass tube. This solution (1-2 µl) was used for gas-chromatography/mass-spectrometry (GC/MS). Rat testes (0.05-0.15 g) were homogenized manually, and lipids were extracted in hexane/isopropanol (3:2 v/v; two times with 4 ml). The extracts were deproteinized with acetone (3 ml) and processed as described above. The observed sterol levels in testis were normalized to correspond to 0.1 g of tissue (wet weight).
# (§3) Gas-chromatography was done in the splitless mode with temperature programming as follows: 150°C for 1 min, followed by 20°C/min up to 260°C and 10°C/min up to 280°C (hold for 15 min). Mass spectral data were collected either in the full-scan mode (m/z 50-550) or by selective ion monitoring (SIM). For SIM analyses the electron multiplier voltage was raised by 300 V after the elution of lathosterol to increase the sensitivity of detection for lanosterol, dihydrolanosterol, methylsterols, dimethylsterols and plant sterols. The internal standard epicoprostanol was monitored at m/z 370. […] Peak integration was performed manually, and sterols were quantified from SIM analyses against the internal standard. Unless stated otherwise, MAS amounts are given as a percentage of the control.
# [2] = system: liver slices; experiment: Influence of bile acids on methylsterols and dimethylsterols in liver slices; type: cell-based; settings: bile acids 160 µM for 9-h, n=2 for UDCA, CDCA, DCA, n=3 for CA and LCA, ratio to campesterol
# Method: as §2, §3
# [3] = molecular target: T1, Δ24-reductase (Homo sapiens, UniProt Q15392); experiment: Δ24-reductase assay (conversion of lanosterol to dihydrolanosterol in the presence of miconazole); type: cell-based; settings: HepG2 cells; conversion of lanosterol to dihydrolanosterol with added miconazole
# T1 construct: endogenous in cells; host or cells: HepG2
# T1 sequence (Q15392 23-516): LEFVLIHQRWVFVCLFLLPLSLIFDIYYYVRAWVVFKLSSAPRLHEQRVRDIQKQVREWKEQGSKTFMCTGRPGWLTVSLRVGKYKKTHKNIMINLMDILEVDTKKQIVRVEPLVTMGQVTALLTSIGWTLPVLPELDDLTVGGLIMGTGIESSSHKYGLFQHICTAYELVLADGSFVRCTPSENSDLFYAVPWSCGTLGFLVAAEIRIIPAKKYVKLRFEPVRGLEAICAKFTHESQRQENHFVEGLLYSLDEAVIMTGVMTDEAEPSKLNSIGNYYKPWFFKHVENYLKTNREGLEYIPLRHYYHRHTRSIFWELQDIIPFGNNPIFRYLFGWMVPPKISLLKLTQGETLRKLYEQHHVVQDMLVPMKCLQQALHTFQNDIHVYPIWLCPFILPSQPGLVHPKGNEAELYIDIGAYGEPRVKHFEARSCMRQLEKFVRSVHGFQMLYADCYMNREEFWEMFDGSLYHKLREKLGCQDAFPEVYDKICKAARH
# Method: HepG2 cells were incubated for 12 h with 10 µM simvastatin (a kind gift from M. Stapff (MSD, Germany)) to deplete cholesterol precursors. Thereafter, the medium was changed to one containing 10 µM simvastatin, 10 µM miconazole (an inhibitor of 14α-demethylation) and 6 µg/dish lanosterol. After 12 h incubation, neutral sterols were extracted as described above, and the samples were monitored for lanosterol (m/z 498 (M^+) and m/z 393 (M-TMSOH-CH3)) and dihydrolanosterol (m/z 500 (M^+) and m/z 395 (M-TMSOH-CH3)) by GC/MS. Dihydrolanosterol was quantified by comparing the ratio of SIM abundances at m/z 395 and 370 (epicoprostanol) against a standard curve constructed from SIM results on mixtures of authentic dihydrolanosterol and epicoprostanol. Desmosterol was quantified analogously by SIM.
# [4] = system: HepG2 cells; experiment: Isotopomer spectral analysis (ISA) of flux of 13C-acetate to lathosterol and cholesterol; type: cell-based, Human; settings: 10 µM, 12 h, 1 mM 1-13C-acetate
# Method: as §1
# Analyses were performed on a Hewlett-Packard GC/MS system (5890 series II GC interfaced to a 5971 mass selective detector) equipped with a DB-XLB column (30 m x 0.25 mm i.d. x 0.25 µm film; J&W). Gas-chromatography was done in the splitless mode with temperature programming as follows: 150°C for 1 min, followed by 20°C/min up to 260°C and 10°C/min up to 280°C (hold for 15 min). Mass spectral data were collected either in the full-scan mode (m/z 50-550) or by selective ion monitoring (SIM). For SIM analyses the electron multiplier voltage was raised by 300 V after the elution of lathosterol to increase the sensitivity of detection for lanosterol, dihydrolanosterol, methylsterols, dimethylsterols and plant sterols. The internal standard epicoprostanol was monitored at m/z 370. In unlabeled experiments, cholesterol precursors and plant sterols were monitored by the following ions: desmosterol (m/z 456; 441 and 351); Δ8-cholestenol (m/z 458); lathosterol (m/z 458); monounsaturated methylsterols (m/z 472); diunsaturated methylsterols (m/z 470); monounsaturated dimethylsterols (m/z 486); diunsaturated dimethylsterols (m/z 484); triunsaturated dimethylsterols (m/z 482); lanosterol (m/z 498 and 393) and dihydrolanosterol (m/z 500 and 395). Peak integration was performed manually, and sterols were quantified from SIM analyses against the internal standard. Unless stated otherwise, MAS amounts are given as a percentage of the control. When 1-^13C-acetate was used in the culture medium for ISA, up to 10 ions (M+0- M+10) were monitored for the TMS derivatives of lathosterol (m/z 458-468), T-MAS (m/z 484-494) and FF-MAS (m/z 482-492).
# ISA was carried out as described previously (25) by incubating cells with 1-13C-acetate. The isotopomer distribution in sterols synthesized from 1-^13C-acetate provided the fractional synthesis rate g(t) of the product and the enrichment D of the labeled precursor pool. These parameters were calculated by nonlinear regression analysis as described previously (25,26). Because here we used the molecular ions containing the TMS group for the ISA calculations, the ISA program was modified to correct for the additional C, H and Si atoms from the derivatization reagent. Statistical differences were assessed by Student's t-test and considered significant for P<0.05.
# [5] = bile acids 160 µM, 12-h, n=3, mean ± SD, ratio to internal standard epicoprostanol
# [6] = Conc. 1 µM (combinations 1 + 1 µM), 24 h, n=3
# [7] = Conc. 10 µM (combinations 10 + 10 µM), 12 h, n=2
# [8] = aminotriazole 20000 µM, tamoxifen 1 µM, combination 20000 + 1 µM, incubation time not clearly stated
molecule,measurement,setting,value
"C[C@]12CC[C@H]3[C@@H](CCC4=CC(=O)CC[C@@]43C)[C@@H]1CC[C@@H]2O [testosterone, Testosterone]",changes in the cholesterol precursor pattern,[1],only minor changes
"C[C@H](CCC(=O)O)[C@H]1CC[C@H]2[C@@H]3[C@@H](O)C[C@@H]4C[C@H](O)CC[C@]4(C)[C@H]3CC[C@]12C [UDCA, Ursodeoxycholic acid]",FF-MAS Dimethylst.-trien (482 m/z),[1]; [5],309 ± 51 % of control
same,Methylst.-dien (470 m/z),[1]; [5],509 ± 19 % of control
same,T-MAS Dimethylst.-dien (484 m/z),[1]; [5],655 ± 84 % of control
same,FF-MAS Dimethylst.-trien (482 m/z),[2],204 % of control
same,Methylst.-dien (470 m/z),[2],235 % of control
same,T-MAS Dimethylst.-dien (484 m/z),[2],633 % of control
CC(=O)[C@H]1CC[C@H]2[C@@H]3CC=C4C[C@@H](O)CC[C@]4(C)[C@H]3CC[C@]12C [Pregnenolone],Dienol (m/z 486),[1]; [6],110 ± 9 % of control
same,Enol T-MAS (m/z 484),[1]; [6],223 ± 11 % of control
same,Trienol FF-MAS (m/z 482),[1]; [6],166 ± 28 % of control
same,Dienol (m/z 486),[1]; [7],4 ± 1 % of control
same,Enol T-MAS (m/z 484),[1]; [7],308 ± 40 % of control
same,Trienol FF-MAS (m/z 482),[1]; [7],213 ± 15 % of control
same,suppression of the Δ24 reduction step (accumulation of desmosterol),"[1]; absence of miconazole, 10 µM potent inhibitors or 1 µM tamoxifen for 12 h",strongly suppressed
same,order of suppression of Δ24 reduction,[3],pregnenolone > progesterone > 17α-OH-pregnenolone >> 17α-OH-progesterone
same,lowering of the total amount of lathosterol,[4],ca. 50%
same,reduction of de novo lathosterol synthesis,[4],more than 60%
Medroxyprogesterone,Dienol (m/z 486),[1]; [7],509 ± 50 % of control
same,Enol T-MAS (m/z 484),[1]; [7],1181 ± 90 % of control
same,Trienol FF-MAS (m/z 482),[1]; [7],227 ± 11 % of control
C[C@]12CC[C@H](O)CC1=CC[C@@H]1[C@@H]2CC[C@]2(C)C(=O)CC[C@@H]12 [dehydroepiandrosterone],changes in the cholesterol precursor pattern,[1],only minor changes
"C[C@]12CCC(=O)C=C1CC[C@@H]1[C@@H]2CC[C@]2(C)C(=O)CC[C@@H]12 [androstenedione, 4-Androsten-3,17-dione]",changes in the cholesterol precursor pattern,[1],only minor changes
Nc1nc[nH]n1 [Aminotriazole],Dienol (m/z 486),[1]; [8],725 ± 65 % of control
same,Enol T-MAS (m/z 484),[1]; [8],610 ± 20 % of control
same,Trienol FF-MAS (m/z 482),[1]; [8],229 ± 18 % of control
